Measured values from patent US11667602B2, “Compounds and their use” (AstraZeneca AB, priority 2020, dated 2023).
In brackets after ≈: the same amount, converted by molar mass.

Legend:
[1] = Rat Hepatocyte Stability (Test E); type: in vitro ADME; conditions: rat, hepatocytes, geometric mean if run multiple times
Summary of the method: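 Intrinsic clearance in rat hepatocytes, expressed as μl/min/10^6 cells, following the literature integrated DMPK panel method. Repeat determinations combined as geometric mean.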

Solubility (Test F) = type: physicochemical; conditions: arithmetic mean if run multiple times
Description: The assay was conducted according to the Solubility Assay described in pages 164-167 of Wernevik, J. et al., “A Fully Integrated Assay Panel for Early Drug Metabolism and Pharmacokinetics Profiling”, Assay and Drug Development Technologies, 2020, 18(4), 157-179. Data are reported in Table 36 as solubility ([…]. Where the assay was run multiple times for the same compound, the arithmetic mean is reported.

human RXFP1 = target: T1, human RXFP1 (Homo sapiens, UniProt Q9HBX9); experiment: RXFP1 Hu cAMP (Test A); type: cell-based; design: expressed in transfected cells; host or cells: Jump-In T-REx CHO-K1 cells (ThermoFisher), induced with 10 ng/ml doxycycline for 24 h; conditions: RXFP1 Hu cAMP; for EC50: read-out: Test A EC50
T1 sequence (Q9HBX9 1-757): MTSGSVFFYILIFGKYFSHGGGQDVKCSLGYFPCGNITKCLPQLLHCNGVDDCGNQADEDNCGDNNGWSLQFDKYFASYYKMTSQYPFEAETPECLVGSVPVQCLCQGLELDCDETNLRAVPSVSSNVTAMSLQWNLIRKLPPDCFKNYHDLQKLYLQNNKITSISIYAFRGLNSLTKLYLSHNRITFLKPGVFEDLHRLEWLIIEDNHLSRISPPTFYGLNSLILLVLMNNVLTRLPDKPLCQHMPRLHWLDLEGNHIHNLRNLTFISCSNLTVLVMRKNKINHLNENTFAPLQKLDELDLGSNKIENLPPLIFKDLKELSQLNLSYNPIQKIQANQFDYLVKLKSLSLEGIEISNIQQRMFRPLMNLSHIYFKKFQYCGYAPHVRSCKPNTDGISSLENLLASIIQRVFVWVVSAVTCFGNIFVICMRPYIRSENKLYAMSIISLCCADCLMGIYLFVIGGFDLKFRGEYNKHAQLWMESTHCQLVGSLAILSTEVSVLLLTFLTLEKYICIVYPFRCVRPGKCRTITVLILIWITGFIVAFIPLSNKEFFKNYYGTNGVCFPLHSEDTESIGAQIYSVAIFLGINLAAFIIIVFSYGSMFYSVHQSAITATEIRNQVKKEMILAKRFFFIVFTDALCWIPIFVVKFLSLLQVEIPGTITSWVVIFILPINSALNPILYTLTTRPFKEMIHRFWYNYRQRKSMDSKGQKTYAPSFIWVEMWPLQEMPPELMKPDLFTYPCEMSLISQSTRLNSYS
Summary of the method: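 Cells: CHO-K1 stably carrying human RXFP1, expressed after 24 h 10 ng/ml doxycycline; 0.5 mM IBMX final, HTRF detection after 2 h at room temperature.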

[2] = Human Plasma Protein Binding (Test B); type: in vitro ADME; conditions: fraction unbound (fu)
Summary of the method: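 Values given as % free (fu) in human plasma, using the method of Wernevik et al. (2020). For compounds tested more than once, the arithmetic mean is given.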

[3] = Human Liver Microsomal Stability (Test C); type: in vitro ADME; conditions: human, liver microsomes
Summary of the method: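 CLint (μl/min/mg protein) derived from compound depletion in human liver microsomes following a published standardized early-DMPK protocol; replicate determinations given as arithmetic mean.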

| Compound | hepatocyte CLint [1] [µL/min/1e6 cells] | solubility (Solubility (Test F)) [µM] | Test A Sinf (human RXFP1) [%] | EC50 (human RXFP1) [µM] | Test B Human Plasma Protein Binding (% free) [2] [% free] | microsomal CLint [3] [µL/min/mg] |
| --- | --- | --- | --- | --- | --- | --- |
| COc1cc(F)c(O[C@H]2CC[C@@H](C(=O)O)CC2)cc1C(=O)N[C@@H]1[C@H]2CC[C@H](C2)[C@@H]1C(=O)Nc1ccc(C)c(C(F)(F)F)c1 [Example 192, (1S,4s)-4-(2-Fluoro-4-methoxy-5-(((1S,2R,3S,4R)-3-((4-methyl-3-(trifluoromethyl)phenyl)carbamoyl)bicyclo[2.2.1]heptan-2-yl)carbamoyl)phenoxy)cyclohexane-1-carboxylic acid] | 43 | 120 (≈ 72.8 µg/mL) | 109 | 0.035 | 0.67 | 21 |
| COc1cc(F)c(O[C@H]2CC[C@@](C)(C(=O)O)CC2)cc1C(=O)N[C@@H]1[C@H]2CC[C@H](C2)[C@@H]1C(=O)N[C@@H](C)C(C)C [Example 42] | 19 | > 1000 | 95 |  | 5.4 | < 3 |
| COc1cc(F)c(O[C@H]2CC[C@@H](C(=O)O)CC2)cc1C(=O)NC1C(C(=O)NCCCC(F)(F)F)[C@@H]2CC[C@H]1C2 (stereo partly drawn) [Example 175, (1S,4s)-4-(2-Fluoro-4-methoxy-5-(((1S,2R,3S,4R)-3-((4,4,4-trifluorobutyl)carbamoyl)bicyclo[2.2.1]heptan-2-yl)carbamoyl)phenoxy)cyclohexane-1-carboxylic acid] | 110 | > 1000 | 100 | > 5.9 | 14 | 5.8 |
| COc1cc(F)c(O[C@H]2CC[C@@](C)(C(=O)O)CC2)cc1C(=O)N[C@@H]1CCC[C@@H]1C(=O)NCC1(C)CC1 [Example 68] | 14 | > 1000 | 97 | 0.84 | 14 | 4.4 |
| COc1cc(F)c(O[C@H]2CC[C@@H](C(=O)O)CC2)cc1C(=O)N[C@@H]1[C@H]2CC[C@H](C2)[C@@H]1C(=O)Nc1cccc(CF)c1 [Example 11, (1S,4s)-4-(2-Fluoro-5-(((1S,2R,3S,4R)-3-((3-(fluoromethyl)phenyl)carbamoyl)bicyclo[2.2.1]heptan-2-yl)carbamoyl)-4-methoxyphenoxy)cyclohexane-1-carboxylic acid] | > 300 | > 1000 | 104 |  | 3.3 | 36 |
| COc1cc(C#N)c(O[C@H]2C[C@@](C)(C(=O)O)C2)cc1C(=O)N[C@@H]1[C@H]2CC[C@H](C2)[C@@H]1C(=O)NCC1(C)CCC1 [Example 148, (1S,3s)-3-(2-cyano-4-methoxy-5-(((1S,2R,3S,4R)-3-(((1-methylcyclobutyl)methyl)carbamoyl)bicyclo[2.2.1]heptan-2-yl)carbamoyl)phenoxy)-1-methylcyclobutane-1-carboxylic acid] | 18 | 890 (≈ 466 µg/mL) |  | > 5 | 0.59 | 7.4 |
| COc1cc(F)c(O[C@H]2CC[C@@H](C(=O)O)CC2)cc1C(=O)N[C@@H]1[C@H]2CC[C@H](C2)[C@@H]1C(=O)Nc1cc(F)cc(C(F)(F)F)c1 [Example 29] | 22 | 130 (≈ 79.4 µg/mL) | 111 | 0.11 | 0.72 | 22 |
| COc1cc(C#N)c(O[C@H]2C[C@@]3(C2)C[C@H](C(=O)O)C3)cc1C(=O)N[C@@H]1[C@H]2CC[C@H](C2)[C@@H]1C(=O)NCC1(C)CCC1 (single isomer, unassigned) [Example 6, (2R*,4r,6R)-6-(2-Cyano-4-methoxy-5-(((1S,2R,3S,4R)-3-(((1-methylcyclobutyl)methyl)carbamoyl)bicyclo[2.2.1]heptan-2-yl)carbamoyl)phenoxy)spiro[3.3]heptane-2-carboxylic acid] | 21 | 820 (≈ 451 µg/mL) | 89 | 0.72 | 4.2 | 35 |
| COc1cc(F)c(-c2ccc(CCC(=O)O)cc2)cc1C(=O)N[C@H]1[C@@H](C(=O)Nc2cccc(S(=O)(=O)C(F)(F)F)c2)[C@@H]2C=C[C@H]1C2 (racemic) [Example 283] | 15 | 220 (≈ 145 µg/mL) | 87 | 0.22 | <0.29 | 12 |
| COc1cc(C#N)c(O[C@H]2CC[C@@H](C(=O)O)CC2)cc1C(=O)N[C@@H]1[C@H]2CC[C@H](C2)[C@@H]1C(=O)Nc1cccc(S(=O)(=O)C(F)(F)F)c1 [Example 467, (1S,4s)-4-(2-Cyano-4-methoxy-5-(((1S,2R,3S,4R)-3-((3-((trifluoromethyl)sulfonyl)phenyl)carbamoyl)bicyclo[2.2.1]heptan-2-yl)carbamoyl)phenoxy)cyclohexane-1-carboxylic acid] | 47 | > 1000 | 99 | 0.019 | 3.7 | 37 |
| COc1cc(F)c(O[C@H]2CC[C@@H](C(=O)O)CC2)cc1C(=O)N[C@@H]1[C@H]2CC[C@H](C2)[C@@H]1C(=O)NCCC1CC1 [Example 176] | 120 | 210 (≈ 108 µg/mL) | 75 | > 4.3 | 9.3 | 8 |
| COc1cc(F)c(O[C@H]2CC[C@@](C)(C(=O)O)CC2)cc1C(=O)Nc1c(C)cccc1C(=O)NCC1(C)CCC1 [Example 156, (1s,4s)-4-(2-Fluoro-4-methoxy-5-((2-methyl-6-(((1-methylcyclobutyl)methyl)carbamoyl)phenyl)carbamoyl)phenoxy)-1-methylcyclohexane-1-carboxylic acid] | 22 | 770 (≈ 416 µg/mL) | 97 |  | 3.2 | 4.3 |
| COc1cc(F)c(O[C@H]2CC[C@@](F)(C(=O)O)CC2)cc1C(=O)N[C@@H]1[C@H]2CC[C@H](C2)[C@@H]1C(=O)Nc1cccc(S(=O)(=O)C(F)(F)F)c1 [Example 416] | 10 | > 1000 | 103 | 0.32 | 1.2 | 9.9 |
| COc1cc(F)c(O[C@H]2CC[C@@H](C(=O)O)CC2)cc1C(=O)N[C@@H]1[C@H]2CC[C@H](C2)[C@@H]1C(=O)Nc1cccc(OC(F)F)c1 [Example 195] | 130 | 860 (≈ 508 µg/mL) | 131 | 0.83 | 1.6 | 28 |
| COc1cc(F)c(O[C@H]2CC[C@@](C)(C(=O)O)CC2)cc1C(=O)N[C@@H]1COC[C@@H]1C(=O)Nc1ccc(F)c(C(F)(F)F)c1 [Example 52, (1R,4s)-4-(2-fluoro-5-(((3S,4R)-4-((4-fluoro-3-(trifluoromethyl)phenyl)carbamoyl)tetrahydrofuran-3-yl)carbamoyl)-4-methoxyphenoxy)-1-methylcyclohexane-1-carboxylic acid] | 34 | 890 (≈ 534 µg/mL) | 108 |  | 0.94 | 13 |
| COc1cc(F)c(O[C@H]2CC[C@@H](C(=O)O)CC2)cc1C(=O)N[C@@H]1[C@H]2CC[C@H](C2)[C@@H]1C(=O)Nc1cc(C(F)(F)F)ncn1 [Example 31] | 13 | 940 (≈ 559 µg/mL) | 81 | 0.75 | 3.7 | 18 |
